From PubChem BioAssay (NCI)
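Assay format: 96-well plates, 48-hour exposure. TGI is the concentration that stops growth completely.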

Columns and labels:
Assay in all cases: NCI tumour cell line growth inhibition, 48 h
[1] = tested on: HCT-116 colon
[2] = tested on: HT29 colon
[3] = tested on: DLD-1 colon
[4] = tested on: HOP-18 NSCLC
[5] = tested on: M14 melanoma
[6] = tested on: HCC-2998 colon
[7] = tested on: SF-268 CNS
[8] = tested on: A498 renal
[9] = tested on: UO-31 renal
[10] = tested on: CAKI-1 renal
[11] = tested on: HCT-15 colon
[12] = tested on: HOP-62 NSCLC
[13] = tested on: NCI-H226 lung
[14] = tested on: HL-60(TB) leukemia
[15] = tested on: SK-MEL-28 melanoma
[16] = tested on: M19-MEL melanoma
[17] = tested on: SNB-75 CNS
[18] = tested on: SK-MEL-5 melanoma
[19] = tested on: DMS 114 small cell lung
[20] = tested on: OVCAR-4 ovarian
[21] = tested on: SF-539 CNS
[22] = tested on: UACC-257 melanoma
[23] = tested on: MOLT-4 leukemia
[24] = tested on: KM20L2 colon
[25] = tested on: UACC-62 melanoma
[26] = tested on: ACHN renal
[27] = tested on: NCI-H460 lung
[28] = tested on: K-562 leukemia
[29] = tested on: MALME-3M melanoma
[30] = tested on: SNB-78 CNS
[31] = tested on: COLO 205 colon
[32] = tested on: HOP-92 NSCLC
[33] = tested on: SNB-19 CNS
[34] = tested on: RPMI-8226 leukemia
[35] = tested on: XF 498 CNS
[36] = tested on: CCRF-CEM leukemia
[37] = tested on: SK-MEL-2 melanoma
[38] = tested on: NCI-H522 lung
[39] = tested on: LOX IMVI melanoma
[40] = tested on: OVCAR-8 ovarian
[41] = tested on: SN12C renal
[42] = tested on: RXF 393 renal
[43] = tested on: SR leukemia
[44] = tested on: NCI-H23 lung
[45] = tested on: KM12 colon
[46] = tested on: EKVX NSCLC
[47] = tested on: DMS 273 small cell lung
[48] = tested on: TK-10 renal
[49] = tested on: SK-OV-3 ovarian
[50] = tested on: LXFL 529 NSCLC
[51] = tested on: OVCAR-5 ovarian
[52] = tested on: U251 CNS
[53] = tested on: RXF-631 renal
[54] = tested on: A549 NSCLC
[55] = tested on: SW-620 colon
[56] = tested on: 786-0 renal
[57] = tested on: IGROV1 ovarian
[58] = tested on: SF-295 CNS
[59] = tested on: OVCAR-3 ovarian

## COc1ccc(NCc2cc(OC)cc(OC)c2)cc1
[1]
  TGI: 57.3 µM
[2]
  TGI: > 100 µM
[3]
  TGI: > 100 µM
[4]
  TGI: > 100 µM
[5]
  TGI: > 100 µM
[6]
  TGI: 57.9 µM
[7]
  TGI: > 91 µM
[8]
  TGI: > 100 µM
[9]
  TGI: > 91.8 µM
[10]
  TGI: > 100 µM
[11]
  TGI: > 100 µM
[12]
  TGI: > 100 µM
[13]
  TGI: > 100 µM
[14]
  TGI: 32.9 µM
[15]
  TGI: > 100 µM
[16]
  TGI: > 100 µM
[17]
  TGI: > 100 µM
[18]
  TGI: > 100 µM
[19]
  TGI: > 100 µM
[20]
  TGI: 82.1 µM
[21]
  TGI: 54.2 µM
[22]
  TGI: > 100 µM
[23]
  TGI: > 100 µM
[24]
  TGI: 38.1 µM
[25]
  TGI: > 100 µM
[26]
  TGI: > 100 µM
[27]
  TGI: > 84.6 µM
[28]
  TGI: > 84.6 µM
[29]
  TGI: > 100 µM
[30]
  TGI: 61.8 µM
[31]
  TGI: 27.4 µM
[32]
  TGI: > 100 µM
[33]
  TGI: > 100 µM
[34]
  TGI: 61.6 µM
[35]
  TGI: > 76.8 µM
[36]
  TGI: > 92.6 µM
[37]
  TGI: > 82.7 µM
[38]
  TGI: 56.7 µM
[39]
  TGI: > 100 µM
[40]
  TGI: > 100 µM
[41]
  TGI: > 100 µM
[42]
  TGI: 69.8 µM
[43]
  TGI: > 100 µM
[44]
  TGI: > 95.5 µM
[45]
  TGI: > 64.9 µM
[46]
  TGI: > 100 µM
[47]
  TGI: > 70.4 µM
[48]
  TGI: > 100 µM
[49]
  TGI: > 95.5 µM
[50]
  TGI: > 100 µM
[51]
  TGI: 77.7 µM
[52]
  TGI: > 85 µM
[53]
  TGI: > 100 µM
[54]
  TGI: > 100 µM
[55]
  TGI: > 100 µM
[56]
  TGI: > 100 µM
[57]
  TGI: > 100 µM
[58]
  TGI: > 100 µM
[59]
  TGI: > 59.3 µM

## CC(=O)Nc1ccc(C2C(C(=O)Nc3ccccc3C)=C(C)NC(C)=C2C(=O)Nc2ccccc2C)cc1
[1]
  TGI: > 100 µM
[2]
  TGI: > 100 µM
[3]
  TGI: > 100 µM
[4]
  TGI: > 100 µM
[5]
  TGI: > 100 µM
[6]
  TGI: > 100 µM
[7]
  TGI: > 100 µM
[8]
  TGI: > 100 µM
[9]
  TGI: > 100 µM
[10]
  TGI: > 100 µM
[11]
  TGI: > 100 µM
[12]
  TGI: > 100 µM
[13]
  TGI: > 100 µM
[14]
  TGI: > 100 µM
[15]
  TGI: > 100 µM
[16]
  TGI: > 100 µM
[17]
  TGI: > 100 µM
[18]
  TGI: > 100 µM
[19]
  TGI: > 100 µM
[20]
  TGI: > 100 µM
[21]
  TGI: > 100 µM
[22]
  TGI: > 100 µM
[23]
  TGI: > 26.2 µM
[24]
  TGI: > 100 µM
[25]
  TGI: > 100 µM
[26]
  TGI: > 100 µM
[27]
  TGI: > 100 µM
[28]
  TGI: > 100 µM
[29]
  TGI: > 100 µM
[30]
  TGI: > 100 µM
[31]
  TGI: > 100 µM
[32]
  TGI: > 100 µM
[33]
  TGI: > 100 µM
[34]
  TGI: > 100 µM
[35]
  TGI: > 100 µM
[36]
  TGI: > 100 µM
[37]
  TGI: > 100 µM
[38]
  TGI: > 100 µM
[39]
  TGI: > 100 µM
[40]
  TGI: > 100 µM
[41]
  TGI: > 100 µM
[42]
  TGI: > 100 µM
[43]
  TGI: > 100 µM
[44]
  TGI: > 100 µM
[45]
  TGI: > 31.6 µM
[46]
  TGI: > 100 µM
[47]
  TGI: > 100 µM
[48]
  TGI: > 100 µM
[49]
  TGI: > 100 µM
[50]
  TGI: > 100 µM
[51]
  TGI: > 100 µM
[52]
  TGI: > 100 µM
[53]
  TGI: > 100 µM
[54]
  TGI: > 100 µM
[55]
  TGI: > 100 µM
[56]
  TGI: > 100 µM
[57]
  TGI: > 100 µM
[58]
  TGI: > 100 µM
[59]
  TGI: > 100 µM
